Measurements reported in PubChem BioAssay AID1963597 (National Center for Advancing Translational Sciences (NCATS), 2024).

Tested on: human liver microsomes, metabolic stability half-life
Assay: NCATS Human Liver Microsomal (HLM) Stability Profiling
Details: higher = more stable; screened at 1 µM (by protocol)
Procedure, shortened: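 Substrate depletion (in vitro t1/2): 1 µM compound with 0.5 mg/mL microsomes and NADPH regenerating system, phosphate buffer pH 7.4, 37 °C. Sampled at 0, 5, 10, 15, 30, 60 min into cold acetonitrile with albendazole internal standard for MS quantification.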

SMILES	half-life [min]
CN1CCN(C(=O)c2ccc3nccn3c2)CC1	> 120
O=C1c2ccccc2C(=O)C1C(=O)C(c1ccccc1)c1ccccc1	> 120
CCOC(=O)c1ncn2c1CN(C)C(=O)c1c(I)cccc1-2	111
CCc1nn(C)c(C(=O)NCc2ccc(Oc3ccc(C)cc3)cc2)c1Cl	7.51
CC(CC1c2ccccc2CCc2ccccc21)CN(C)C (configuration not stated)	87.7
CCCCN(CCCC)CCC(O)c1cc2c(Cl)cc(Cl)cc2c2cc(C(F)(F)F)ccc12 (configuration not stated)	29.5
O=C(NN1CCCC1)NS(=O)(=O)c1ccc(Cl)cc1	> 120
CCc1cc2cc(OC)c(OC)cc2c(Cc2ccccc2)n1	8.36
CC(C(=O)O)c1ccc2c(c1)[nH]c1ccc(Cl)cc12 (configuration not stated)	> 120
COc1cccc2c1C(=O)c1c(O)c3c(c(O)c1C2=O)C[C@@](O)(C(=O)CO)C[C@@H]3O[C@H]1C[C@H](N)[C@H](O[C@@H]2CCCCO2)[C@H](C)O1	> 120
COc1cc(C=O)ccc1O	97.1
CCC[C@H](N[C@H]1CCc2cc(F)cc(F)c2C1)C(=O)Nc1cn(C(C)(C)CNCC(C)(C)C)cn1	3.12
O=C(O)c1cccc(-c2noc(-c3ccccc3F)n2)c1	> 120
Cc1cccc(C)c1NC(=O)[C@H]1CCCCN1C	> 120
CCN(CC)CC(=O)Nc1c(C)cccc1C(=O)OC	24
COc1ccc(CC(=O)Nc2c(C(=O)N3CCN(c4ccccc4F)CC3)oc3ccccc23)cc1OC	5.26
Cc1c(CN2CCN(C(=O)C(C)C)CC2)sc2c(N3CCOCC3)nc(-c3cnc(N)nc3)nc12	> 120
Cn1nnc2c(C(N)=O)ncn2c1=O	21.1
CCN1CCN(C(=O)C2Cn3cccc3C(=O)N2CC(C)C)CC1 (configuration not stated)	> 120
Nc1nc2c(c(N3CCNCC3)n1)CCC1=C2[C@@H]2CCCC[C@@H]2O1	> 120
O=C(N[C@@H](COc1ccc2[nH]c(=O)[nH]c2c1)c1ccccc1)c1cccn(Cc2ccc(F)c(F)c2)c1=O	42.5
CCOC(=O)C1(CCOc2ccccc2)CCN(Cc2ccc(O)c(Cl)c2)CC1	5.08
CN1C(C(=O)Nc2ccccn2)=C(O)c2sccc2S1(=O)=O	> 120
CCCn1cc2c(nc(NC(=O)Nc3ccc(OC)cc3)n3nc(-c4ccco4)nc23)n1	> 120
O=C(N[C@H]1CCN(C(=O)c2cc(C(F)(F)F)cc(C(F)(F)F)c2)[C@H](Cc2ccc(Cl)cc2)C1)c1ccnc2ccccc12	49.2
C=CCN1CC[C@]23c4c5ccc(O)c4O[C@H]2C(=O)CC[C@@]3(O)[C@H]1C5	> 120

SMILES	half-life [min]
OCCN1CCN(CCCN2c3ccccc3C=Cc3ccccc32)CC1	> 120
C=Cc1cc(O)cc2nc(-c3ccc(O)c(F)c3)oc12	5.84
COCC(=O)NCC=Cc1ccc2ncnc(Nc3ccc(Oc4ccc(C)nc4)c(C)c3)c2c1	22.7
CCc1ccc(NC(=O)N2CCN(c3nnc(C)c4c(C)n(-c5ccc(Cl)cc5)nc34)CC2)cc1	25.5
Cn1nc(C(C)(C)C)cc1C(=O)NC(Cc1cccc(Cl)c1)C(=O)NCC#N (configuration not stated)	67.4
CC1(c2ccccc2)N(Cc2ccccc2)C(=O)OC12CCN(Cc1cccc(C#N)c1)CC2 (configuration not stated)	2.04
Cc1c(Cl)ccc2sc(N3CCN(C(=O)CS(=O)(=O)c4ccccc4)CC3)nc12	61.2
CCCCS(=O)(=O)N[C@@H](Cc1ccc(OCCCCC2CCNCC2)cc1)C(=O)O	> 120
CN1CC(O)c2cc(N=NC(N)=O)c(O)cc21 (configuration not stated)	> 120
CCOC(=O)Nc1ccc(NCc2ccc(F)cc2)cc1N	> 120
CC(C)(C)NC[C@H](O)c1cc(O)cc(O)c1	> 120
C[C@]12CC[C@H]3[C@@H](CC[C@@]45O[C@H]4C(O)=C(C#N)C[C@]35C)[C@H]1CC[C@H]2O	85
CCCn1cnc2c1c(=O)n(CCCCC(C)=O)c(=O)n2C	> 120
CC[C@]1(O)C[C@@H]2CN(CCc3c([nH]c4ccccc34)[C@@](C(=O)OC)(c3cc4c(cc3OC)N(C)[C@H]3[C@@](O)(C(=O)OC)[C@H](OC(C)=O)[C@]5(CC)C=CCN6CC[C@]43[C@@H]65)C2)C1	54.6
O=C(NCC1CCN(Cc2cccc(Cl)c2)CC1)[C@@H]1CCCN(c2ncnc3c2nc2n3CCCC2)C1	8.65
CN[C@@H](C)[C@@H](O)c1ccccc1	> 120
COc1cc2c(c(OC)c1OC)-c1ccc(OC)c(=O)cc1[C@@H](NC(C)=O)CC2	> 120
O=C(Nc1ccc(-c2ccnc(Nc3ccc(N4CCOCC4)cc3)n2)cc1)C1CCCN1 (configuration not stated)	> 120
CCCCCn1cc(C(=O)Oc2cccc3cccnc23)c2ccccc21	4.97
Cc1oc(=O)oc1COC(=O)[C@@H]1N2C(=O)[C@@H](NC(=O)[C@H](N)c3ccccc3)[C@H]2SC1(C)C	12.2
Cc1cc(C)c(-n2cc(C)c3c(Cl)nc(C)nc32)c(C)c1	10.1
Cn1ncc(Cl)c1-c1cc(C(=O)NC(CN)Cc2ccc(F)c(F)c2)oc1Cl (configuration not stated)	> 120
O=C1COc2nccc(-c3ccccc3F)c2CN1Cc1cc(C(F)(F)F)cc(C(F)(F)F)c1	2.5
C[C@@H](N)c1ccc(C(=O)Nc2ccnc3[nH]ccc23)cc1	> 120
CCN1CCN(C(=O)Cc2cccn2-c2ccc(F)cc2)CC1	114
Cc1ccc(S(=O)(=O)NC(=O)NN2CCCCCC2)cc1	> 120

SMILES	half-life [min]
O=c1cc(N2CCOCC2)oc2c(-c3cccc(F)c3)nccc12	34.5
CCOC(=O)C(c1c(O)c2ccccc2oc1=O)c1c(O)c2ccccc2oc1=O	10.3
Cc1cccc(NC(=O)Nc2cccs2)c1C	10.2
Cc1cc2c(F)c(Oc3ncnn4cc(OCC(C)OC(=O)C(C)N)c(C)c34)ccc2[nH]1 (configuration not stated)	1.26
CC(=O)N1CCC(Cc2ccc(C(=O)O)cc2)CC1	> 120
COc1ccccc1N1CCN(CCCNc2cc(=O)n(C)c(=O)n2C)CC1	> 120
O=C(NCC1CCOCC1)c1cnc(Nc2ccc(Cl)cc2Cl)nc1C(F)(F)F	38.1
N#Cc1ccc(C(=O)Nc2ccc(Cl)c(-c3nc4ncccc4o3)c2)c(F)c1	10.3
O=C(OC1C[C@@H]2CC3C[C@H](C1)N2CC3=O)c1c[nH]c2ccccc12 (some centres not stated)	5.19
CS(=O)(=O)c1ccc([C@@H](O)[C@@H](CO)NC(=O)C(Cl)Cl)cc1	> 120
Cc1ccccc1C(=O)Nc1cccc(-c2nc3cccnc3s2)c1	6.57
CC(C)(O)c1ccc2c(c1)ncn2-c1cccc(-c2ccccc2C#N)c1	> 120
Cc1nc2ccc(CN(C)c3ccc(C(=O)NC(CCC(=O)O)C(=O)O)s3)cc2c(=O)[nH]1 (configuration not stated)	> 120
CCOP(=S)(Oc1cnc(C(C)(C)C)nc1)OC(C)C (configuration not stated)	11.1
C[C@]12CCC3c4ccc(O)cc4C[C@@H](CCCCCCCCCS(=O)CCCC(F)(F)C(F)(F)F)[C@H]3[C@@H]1CC[C@@H]2O (some centres not stated)	4.1
CCOC(=O)Cn1cccc1-c1nc(-c2ccc(OC)cc2)c(-c2ccc(OC)cc2)s1	0.96
COc1ccc(-c2nc3ccccc3c(=O)n2Cc2ccco2)cc1COc1ccc(NC(C)=O)cc1	1.85
CS(=O)(=O)c1cccc(CNc2nc(Nc3ccc4c(c3)CCC(=O)N4)ncc2C(F)(F)F)c1	> 120
CC(C)CN1C(=O)c2cccn2CC1C(=O)N1CCN(C)CC1 (configuration not stated)	62.8
Cc1ccc(S(=O)(=O)Nc2nc3n(n2)C(c2ccc(F)cc2)C=C(c2ccccc2)N3)cc1 (configuration not stated)	> 120
Nc1ccn([C@@H]2O[C@H](CO)[C@H](O)C2(F)F)c(=O)n1	22.3
NC(=Nc1ccccc1)Nc1ccccc1	> 120
CN(C)[S+](=O)([O-])c1ccc([S+](=O)([O-])N(Cc2ccccc2)Cc2ccccn2)cc1	4.28
CC(=O)N1CCC(Cc2ccc(C(=O)NC3CC3)cc2)CC1	> 120
CC(=O)N1C[C@H](O)C[C@H]1C(=O)O	50.1
COc1ccc(CCC(C)=O)cc1	> 120

SMILES	half-life [min]
N#Cc1ccnc(Nc2cc(C3CCN(C4COC4)CC3)cc(N3CCC(F)(F)C3)n2)c1	29.3
CCCn1ncc(CN2CCCC(C(=O)c3cccc(OC(C)C)c3)C2)c1C (configuration not stated)	8.9
COP(=S)(OC)Oc1ccc(SC)c(C)c1	4.44
O=C(Nc1ccnc(NC(=O)C2CC2)c1)c1c(Cl)cccc1Cl	> 120
CCOC(=O)C1=Cc2ccc(C(F)(F)C(F)(F)F)cc2N=C(N)C1	9.93
Nc1nccs1	53.7
Cc1nc2c3ccccc3nc(NNC(=O)CCC(=O)N3CCN(c4ccc(F)cc4)CC3)n2n1	40.4
CN(C)CCN(Cc1cccs1)c1ccccn1	23.8
CC1(C)CC(=O)c2c(C(F)(F)F)nn(-c3ccc(C(N)=O)c(NC4CCC(OC(=O)CN)CC4)c3)c2C1 (configuration not stated)	1.57
CC(C)(C)NCc1cc(Nc2ccnc3cc(Cl)ccc23)c2c(c1O)CCCC2	> 120
Cc1cc(C(C)Nc2ccccc2)c2nc(N3CCOCC3)cc(=O)n2c1 (configuration not stated)	17.2
Cc1ccc(S(=O)(=O)NC2CCC(C(C)(C)C)CC2)cc1 (configuration not stated)	3.92
CCOCCCNC(=O)C(=O)Nc1c2c(nn1-c1ccc(OC)cc1)CSC2	42.3
CN(C)S(=O)(=O)c1ccc(S(=O)(=O)N(Cc2ccco2)Cc2ccccc2Cl)cc1	3.33
CCOP(=S)(OCC)Oc1ccc2c(C)c(Cl)c(=O)oc2c1	5.07
CC(=O)Nc1ccc(OC[C@@H](O)CNC(C)C)cc1	> 120
CCN(CC)CCNc1ccc(CO)c2sc3ccccc3c(=O)c12	90.3
CCN1CCN(C(=O)c2cc(-c3ccccc3OC)c3nncn3n2)CC1	54.7
COc1ccc(CCNC(=O)CCc2c(C)c3cc4c(C)coc4cc3oc2=O)cc1	5.41
COc1cc(C(=O)NCC2(N(C)C)CCCC2)cc(OC)c1OCc1ccccc1	38.3
COc1cc(NS(=O)(=O)c2ccc(N)cc2)nc(OC)n1	> 120
COc1ccc(CNC(=O)c2cnn(-c3ccc(C)cc3)c2C2CCN(C(=O)OC(C)(C)C)CC2)cc1	0.7
COc1ccc2cc(OCC3(C(=O)O)CN(C(=O)c4ccc(F)cc4)C3)ccc2c1	8.64
CCCCCC(=O)O[C@]1(C(C)=O)CC[C@H]2[C@@H]3CCC4=CC(=O)CC[C@]4(C)[C@H]3CC[C@@]21C	1.86
